{
  "source": "paper PMC3885398",
  "about": "“Evaluation of the Antitumor Effects of BPR1J-340, a Potent and Selective FLT3 Inhibitor, Alone or in Combination with an HDAC Inhibitor, Vorinostat, in AML Cancer” (PLoS ONE, 2014)",
  "key": {"[1]": {"target": "Aurora B kinase (Homo sapiens, UniProt Q96GD4)", "sequence (Q96GD4 whole entry)": "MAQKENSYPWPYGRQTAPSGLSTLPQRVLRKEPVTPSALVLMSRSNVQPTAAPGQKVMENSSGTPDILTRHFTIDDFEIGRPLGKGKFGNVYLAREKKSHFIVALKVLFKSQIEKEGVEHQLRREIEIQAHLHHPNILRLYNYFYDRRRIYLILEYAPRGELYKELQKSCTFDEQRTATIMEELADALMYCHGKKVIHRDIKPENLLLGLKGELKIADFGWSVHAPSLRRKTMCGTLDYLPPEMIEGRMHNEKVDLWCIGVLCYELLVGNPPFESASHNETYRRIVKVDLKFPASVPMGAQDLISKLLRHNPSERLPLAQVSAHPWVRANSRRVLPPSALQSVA", "assay": "Aurora B kinase inhibition", "format": "biochemical", "experimental": "BPR1J-340, a urea-substituted 3-phenyl-1H-5-pyrazolylamine-based compound, was designed through chemical modification of sulfonamide series of derivatives (BPR1J-097 series) by a structure-activity relationship (SAR) study (Fig. 1), [32]. For kinase inhibition specificity screening, BPR1J-340 was tested against 59 protein kinases covering the major oncogenic kinases of human protein kinome. […] In addition, BPR1J-340 inhibited TRKA, which is associated with the growth and metastasis of breast cancers, with an IC50 value of 8 nM. Given the high similarity of the ATP binding pockets of FLT3 and the Aurora kinases, the inhibitory activity toward Aurora A and Aurora B were measured. […] Taken together, BPRJ-340 is a selective kinase inhibitor with in vitro activity against FLT3, VEGFR2, VEGFR3 and TRKA receptor tyrosine kinases."}, "[2]": {"target": "KDR (VEGFR2) (Homo sapiens, UniProt P35968)", "sequence (P35968 789-1356)": "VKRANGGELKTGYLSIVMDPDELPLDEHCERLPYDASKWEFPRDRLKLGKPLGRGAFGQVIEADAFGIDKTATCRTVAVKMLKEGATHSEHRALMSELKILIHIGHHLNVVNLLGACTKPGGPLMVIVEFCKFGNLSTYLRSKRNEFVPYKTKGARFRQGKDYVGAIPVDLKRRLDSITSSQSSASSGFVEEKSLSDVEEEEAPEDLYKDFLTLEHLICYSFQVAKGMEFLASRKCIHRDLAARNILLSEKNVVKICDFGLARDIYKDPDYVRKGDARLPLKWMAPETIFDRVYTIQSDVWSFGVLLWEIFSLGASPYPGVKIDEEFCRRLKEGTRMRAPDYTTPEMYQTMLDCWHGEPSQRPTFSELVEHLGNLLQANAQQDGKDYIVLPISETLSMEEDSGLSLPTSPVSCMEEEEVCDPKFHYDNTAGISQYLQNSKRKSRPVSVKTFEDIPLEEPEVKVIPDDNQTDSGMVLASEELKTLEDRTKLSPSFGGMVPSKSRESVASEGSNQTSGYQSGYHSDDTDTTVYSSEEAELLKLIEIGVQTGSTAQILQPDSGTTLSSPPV", "assay": "VEGFR2 Kinase-Glo kinase assay", "format": "biochemical", "parameters": "VEGFR2 (residues V789-V1356); made in house", "experimental": "The FLT3 inhibitors, BPR1J-340 and AC220, were synthesized by our laboratory. The histone deacetylase inhibitor vorinostat (SAHA) was purchased from SelleckBio (Houston, TX, USA). All inhibitors were dissolved in dimethylsulfoxide (DMSO) at a stock concentration of 10 mM. The anti-FLT3 (sc-480, Santa Cruz Biotechnology, Santa Cruz, CA, USA), anti-pFLT3-Tyr591 (#3461, Cell Signaling Technology, Beverly, MA, USA) anti-STAT5 (#9363, Cell Signaling Technology), anti-pSTAT5–Tyr694 (#9351, Cell Signaling Technology), anti-cleaved poly ADP-ribose polymerase (PARP) (#9542, Cell Signaling Technology), anti-Mcl-1 (#4572, Cell Signaling Technology), anti-caspase 3 (#9662, Cell Signaling Technology) and anti-β-actin (Gtx110546, GeneTex, Irvine, CA, USA) antibodies were purchased for Western blotting analysis. The preparation of recombinant proteins, FLT3 (residues Y567-S993), VEGFR1 (residues R781-I1338) and VEGFR2 (residues V789-V1356), for biochemical kinase assay was described previously. The VEGFR3 (residues M800-Y1363) proteins were purchased from Upstate (Billerica, MA, USA).\nThe FLT3 and VEGFR1/2 Kinase-Glo kinase assays were performed as reported by our earlier study. […] The kinase inhibition profiling and inhibitory activity of FLT3-D835Y, CSF1R, and TRKA were determined by Invitrogen SelectScreen® kinase profiling service (Carlsbad, California, USA)."}},
  "data": [
    {"compound": "CCc1cc(NC(=O)NCc2ccc(-c3cc(NC(=O)c4ccc(CN5CCN(C)CC5)cc4)[nH]n3)cc2)no1", "note": "[BPR1J-340, N1-(3-4-[([(5-ethyl-3-isoxazolyl)amino]carbonylamino)methyl]phenyl-1H-5-pyrazolyl)-4-[(4-methylpiperazino)methyl]benzamide]", "values": [
      {"measurement": "IC50", "setting": "[1]", "value": 1340, "unit": "nM"},
      {"measurement": "IC50", "setting": "[2]", "value": "28 ± 9", "unit": "nM"}
    ]}
  ]
}
